Our source for the IC50 values is US20220282217A1, “COMPOSITIONS AND METHODS FOR PREPARING T CELL COMPOSITIONS AND USES THEREOF” (priority 2019, published 2022).

Broadly, the IC50 is the midpoint of a concentration-inhibition curve.

SMILES strings stand for the structures. Where a SMILES comes first, the peptide text is derived from it.

The target of one test is HLA-A02.01 (Homo sapiens, UniProt P04439, D140Y/D185E/D98H/E176V/E277Q/G131W/G231S/I119V/I121R/I166T/I218V/L300P/L318F/N151K/N90K/P208A/P217A/Q86G/Q94H/R138H/R169H/T345S). As to the kind of experiment: Class I MHC peptide binding affinity (displacement of radiolabeled reference peptide). To be noted: Observed Affinity (IC50; (nM)), allele A02.01. On the procedure: In brief, MHCI complexes were prepared and bound to radiolabeled reference peptides. Peptides were incubated at varying concentrations with these complexes for 2 days, and the amount of remaining radiolabeled peptide bound to […] was measured using size exclusion gel-filtration.
`CC[C@H](C)[C@H](NC(=O)[C@H](CCCCN)NC(=O)[C@H](Cc1ccc(O)cc1)NC(=O)[C@@H](NC(=O)[C@@H](NC(=O)[C@H](CC(=O)O)NC(=O)[C@H](CO)NC(=O)[C@H](CCSC)NC(=O)[C@@H](N)C(C)C)[C@@H](C)O)[C@@H](C)O)C(=O)O` (H-VMSDTTYKI-OH; N-terminus and C-terminus assumed) returned an IC50 of 19.6 nM.

`CC[C@H](C)[C@H](NC(=O)[C@@H](NC(=O)[C@@H](NC(=O)[C@@H](N)Cc1ccc(O)cc1)[C@@H](C)CC)[C@@H](C)CC)C(=O)N[C@@H](CCC(=O)O)C(=O)N[C@@H](Cc1ccccc1)C(=O)N[C@@H](CCSC)C(=O)N[C@H](C(=O)N[C@@H](Cc1ccc(O)cc1)C(=O)NCC(=O)O)[C@@H](C)O` (H-YIIIEFMTYG-OH; N-terminus and C-terminus assumed) displayed a half-inhibitory concentration (IC50) of 186 nM.

The compound `CC(C)C[C@H](NC(=O)[C@H](CC(=O)O)NC(=O)[C@H](CO)NC(=O)[C@H](CCC(N)=O)NC(=O)[C@H](CCC(N)=O)NC(=O)[C@@H](N)CCC(N)=O)C(=O)N[C@@H](CCC(N)=O)C(=O)N1CCC[C@H]1C(=O)N1CCC[C@H]1C(=O)N[C@@H](C)C(=O)O` (H-QQQSDLQPPA-OH; N-terminus and C-terminus assumed) came in with an IC50 of 646 nM.

The compound `CC[C@H](C)[C@H](NC(=O)[C@H](CC(N)=O)NC(=O)[C@H](CCSC)NC(=O)[C@H](Cc1c[nH]cn1)NC(=O)[C@H](CC(N)=O)NC(=O)CNC(=O)[C@H](CC(C)C)NC(=O)[C@@H](N)Cc1ccc(O)cc1)C(=O)N[C@@H](C)C(=O)N[C@@H](CC(N)=O)C(=O)O` (H-YLGNHMNIAN-OH; N-terminus and C-terminus assumed) registered a 50% inhibitory concentration (IC50) of 1340 nM.

Compound `CC[C@H](C)[C@H](N)C(=O)N[C@H](C(=O)N[C@@H](CCC(=O)O)C(=O)N[C@@H](Cc1ccccc1)C(=O)N[C@@H](CCSC)C(=O)N[C@H](C(=O)N[C@@H](Cc1ccc(O)cc1)C(=O)NCC(=O)N[C@@H](CC(N)=O)C(=O)N[C@@H](CC(C)C)C(=O)O)[C@@H](C)O)[C@@H](C)CC` (H-IIEFMTYGNL-OH; N-terminus and C-terminus assumed) yielded an IC50 of 9700 nM.

Still in this test, the particulars now being: allele A02.01; read-out: Observed Affinity (IC50; (nM)).
Take `CC[C@H](C)[C@H](N)C(=O)N[C@H](C(=O)N[C@@H](CO)C(=O)N[C@@H](CCCNC(=N)N)C(=O)N[C@H](C(=O)N[C@@H](CC(C)C)C(=O)N[C@@H](CC(C)C)C(=O)N[C@@H](CC(C)C)C(=O)N[C@H](C(=O)O)C(C)C)[C@@H](C)O)C(C)C` (H-IVSRTLLLV-OH; N-terminus and C-terminus assumed): the IC50 came to 12.7 nM.

Turning to `CSCC[C@H](NC(=O)[C@H](CCCCN)NC(=O)[C@H](CCCNC(=N)N)NC(=O)[C@H](CC(C)C)NC(=O)[C@H](CC(N)=O)NC(=O)[C@H](CC(C)C)NC(=O)[C@H](CCCNC(=N)N)NC(=O)[C@H](CC(C)C)NC(=O)[C@H](CC(C)C)NC(=O)[C@@H](N)CCSC)C(=O)O`, the IC50 amounted to 2510 nM.

On to `CC(C)[C@H](NC(=O)[C@H](Cc1c[nH]cn1)NC(=O)[C@@H](NC(=O)[C@H](CCC(=O)O)NC(=O)[C@H](Cc1ccccc1)NC(=O)[C@H](CO)NC(=O)[C@@H](N)CC(N)=O)C(C)C)C(=O)N[C@@H](CS)C(=O)N[C@@H](C)C(=O)O` (H-NSFEVHVCA-OH; N-terminus and C-terminus assumed), for which the concentration for half-maximal inhibition (IC50) is 503 nM.

Consider `CC(C)C[C@H](NC(=O)[C@H](CO)NC(=O)[C@H](CC(N)=O)NC(=O)[C@H](CS)NC(=O)[C@H](CCC(=O)O)NC(=O)[C@H](Cc1c[nH]cn1)NC(=O)[C@H](CC(C)C)NC(=O)[C@@H](NC(=O)[C@H](CCC(N)=O)NC(=O)[C@@H](N)CC(C)C)C(C)C)C(=O)O`, for which the half-maximal inhibitory concentration (IC50) stood at 4720 nM.

Consider `CSCC[C@H](NC(=O)[C@H](Cc1c[nH]cn1)NC(=O)[C@@H](NC(=O)[C@H](CC(C)C)NC(=O)[C@@H](NC(=O)[C@@H]1CCCN1C(=O)[C@H](C)NC(=O)[C@H](CC(C)C)NC(=O)[C@H](C)N)[C@@H](C)O)[C@@H](C)O)C(=O)O` (H-ALAPTLTHM-OH; N-terminus and C-terminus assumed), for which the concentration for half-maximal inhibition (IC50) is 59 nM.

Turning to `CSCC[C@H](NC(=O)[C@H](C)NC(=O)[C@H](CO)NC(=O)[C@H](CCSC)NC(=O)[C@H](CC(C)C)NC(=O)[C@H](C)N)C(=O)N[C@H](C(=O)N[C@H](C(=O)N[C@@H](CO)C(=O)O)[C@@H](C)O)[C@@H](C)O` (H-ALMSAMTTS-OH; N-terminus and C-terminus assumed), the IC50 is 139 nM.

Turning to `CC[C@H](C)[C@H](N)C(=O)N[C@H](C(=O)N[C@@H](CCC(=O)O)C(=O)N[C@@H](Cc1ccc(O)cc1)C(=O)N[C@@H](CS)C(=O)N[C@@H](Cc1ccccc1)C(=O)N[C@@H](Cc1ccc(O)cc1)C(=O)NCC(=O)N[C@@H](CC(=O)O)C(=O)N[C@@H](CC(C)C)C(=O)O)[C@@H](C)CC` (H-IIEYCFYGDL-OH; N-terminus and C-terminus assumed), the IC50 was found to be 1090 nM.

Turning to `CC[C@H](C)[C@H](N)C(=O)N[C@@H](CCC(N)=O)C(=O)N[C@@H](CC(C)C)C(=O)N[C@@H](CCC(N)=O)C(=O)N[C@@H](CC(=O)O)C(=O)N[C@@H](CCCCN)C(=O)N[C@@H](Cc1ccccc1)C(=O)N[C@@H](CCC(=O)O)C(=O)N[C@@H](Cc1c[nH]cn1)C(=O)N[C@@H](CC(C)C)C(=O)O`, the concentration for half-maximal inhibition (IC50) is 4270 nM.

Turning to `CC(C)C[C@H](NC(=O)[C@H](CC(C)C)NC(=O)[C@H](CC(C)C)NC(=O)[C@H](CC(=O)O)NC(=O)[C@H](CC(N)=O)NC(=O)[C@H](CC(C)C)NC(=O)[C@@H]1CCCN1C(=O)[C@@H](NC(=O)[C@@H](NC(=O)[C@@H](N)CC(N)=O)C(C)C)C(C)C)C(=O)O` (H-NVVPLNDLLL-OH; N-terminus and C-terminus assumed), the IC50 was found to be 4190 nM.

Take `CC[C@H](C)[C@H](NC(=O)[C@H](Cc1ccc(O)cc1)NC(=O)[C@H](CC(C)C)NC(=O)[C@@H](N)CO)C(=O)N[C@H](C(=O)NCC(=O)N[C@@H](Cc1ccccc1)C(=O)N[C@@H](Cc1ccc(O)cc1)C(=O)NCC(=O)O)C(C)C` (H-SLYIVGFYG-OH; N-terminus and C-terminus assumed): the IC50 was determined as 1060 nM.

As for `CC(C)C[C@H](NC(=O)[C@H](CC(C)C)NC(=O)CNC(=O)[C@H](Cc1ccc(O)cc1)NC(=O)[C@H](CC(C)C)NC(=O)[C@@H]1CCCN1C(=O)[C@@H](NC(=O)[C@@H](NC(=O)[C@@H](N)CC(N)=O)C(C)C)C(C)C)C(=O)O` (H-NVVPLYGLL-OH; N-terminus and C-terminus assumed), the IC50 was found to be 10500 nM.

As to `CC(C)C[C@H](NC(=O)[C@H](Cc1ccccc1)NC(=O)[C@H](CO)NC(=O)[C@H](CC(C)C)NC(=O)[C@H](CS)NC(=O)[C@H](CO)NC(=O)[C@H](Cc1ccccc1)NC(=O)[C@H](CC(C)C)NC(=O)[C@H](CCCCN)NC(=O)[C@@H](N)Cc1ccccc1)C(=O)O` (H-FKLFSCLSFL-OH; N-terminus and C-terminus assumed), the IC50 came to 663 nM.

In the case of `CC(C)C[C@H](NC(=O)[C@H](CS)NC(=O)[C@H](Cc1c[nH]c2ccccc12)NC(=O)[C@H](CC(C)C)NC(=O)[C@H](CO)NC(=O)[C@H](CO)NC(=O)[C@H](CCCNC(=N)N)NC(=O)[C@H](CCC(N)=O)NC(=O)[C@H](CC(C)C)NC(=O)[C@@H](N)[C@@H](C)O)C(=O)O` (H-TLQRSSLWCL-OH; N-terminus and C-terminus assumed), the IC50 was 118 nM.

Take `CC[C@H](C)[C@H](NC(=O)[C@@H]1CCCN1C(=O)[C@H](CCCNC(=N)N)NC(=O)[C@H](CCCNC(=N)N)NC(=O)[C@H](CC(N)=O)NC(=O)[C@H](CCSC)NC(=O)[C@@H](N)CO)C(=O)N[C@@H](CC(C)C)C(=O)N[C@H](C(=O)O)[C@@H](C)O`: the 50% inhibitory concentration (IC50) was 3840 nM.

With `CC[C@H](C)[C@H](NC(=O)[C@@H](NC(=O)[C@@H](NC(=O)[C@H](CC(C)C)NC(=O)[C@@H](NC(=O)[C@@H]1CCCN1C(=O)[C@H](CCCNC(=N)N)NC(=O)[C@H](CCC(N)=O)NC(=O)[C@@H](N)CC(N)=O)[C@@H](C)CC)[C@@H](C)O)[C@@H](C)CC)C(=O)O` (H-NQRPILTII-OH; N-terminus and C-terminus assumed), the IC50 came to 9610 nM.

Regarding `CC[C@H](C)[C@H](NC(=O)[C@@H](N)CC(C)C)C(=O)N[C@H](C(=O)N[C@@H](CO)C(=O)N[C@@H](CCCNC(=N)N)C(=O)N[C@H](C(=O)N[C@@H](CC(C)C)C(=O)N[C@@H](CC(C)C)C(=O)N[C@@H](CC(C)C)C(=O)O)[C@@H](C)O)C(C)C`, the IC50 is 173 nM.

In the case of `CC(C)C[C@H](NC(=O)[C@H](C)N)C(=O)N[C@@H](CCC(=O)O)C(=O)N[C@@H](CCC(=O)O)C(=O)N[C@@H](CCCCN)C(=O)N[C@@H](CCCCN)C(=O)NCC(=O)N[C@@H](CC(N)=O)C(=O)N[C@@H](Cc1ccc(O)cc1)C(=O)N[C@H](C(=O)O)C(C)C` (H-ALEEKKGNYV-OH; N-terminus and C-terminus assumed), the IC50 stood at 141 nM.

`CC(C)C[C@H](NC(=O)[C@H](CC(C)C)NC(=O)[C@H](CC(=O)O)NC(=O)[C@H](CS)NC(=O)[C@H](CC(C)C)NC(=O)[C@@H]1CCCN1C(=O)[C@@H](NC(=O)[C@@H](NC(=O)[C@@H](N)CC(N)=O)C(C)C)C(C)C)C(=O)O` (H-NVVPLCDLL-OH; N-terminus and C-terminus assumed): the IC50 came out at 3030 nM.

Turning to `CC(C)C[C@H](NC(=O)CNC(=O)[C@H](Cc1c[nH]c2ccccc12)NC(=O)[C@H](CC(=O)O)NC(=O)[C@H](CCCCN)NC(=O)CNC(=O)[C@H](CCC(N)=O)NC(=O)[C@@H](NC(=O)[C@@H](N)Cc1ccccc1)C(C)C)C(=O)O`, the IC50 is 34 nM.

Take `CC(C)C[C@H](NC(=O)[C@H](CCCNC(=N)N)NC(=O)[C@@H](NC(=O)[C@@H](N)CC(C)C)C(C)C)C(=O)N[C@@H](CO)C(=O)N[C@@H](CO)C(=O)N[C@@H](CS)C(=O)N[C@H](C(=O)N1CCC[C@H]1C(=O)N[C@H](C(=O)O)C(C)C)C(C)C` (H-LVRLSSCVPV-OH; N-terminus and C-terminus assumed): the IC50 was found to be 1240 nM.
